Assay results as given in patent publication EP0207358A2, “Growth-promoting agent” (BAYER AG, priority 1985, dated 1987).

tested on: Weibliche Laborratten; assay: Rat feeding trial (Ratten-Fütterungsversuch); format: in vivo; conditions: female SPF Wistar rats 90-110 g; active substance mixed into standard rat feed ad lib; 13-day trial; compared with control group on feed without active substance
From the text: Weibliche Laborratten 90-110 g schwer vom Typ SPF Wistar (Züchtung Hagemann) werden ad lib mit Standard-Rattenfutter, das mit der gewünschten Menge Wirkstoff versetzt ist, gefüttert. Jeder Versuchsansatz wird mit Futter der identischen Charge durchgeführt, so daß Unterschiede in der Zusammensetzung des Futters die Vergleichbarkeit der Ergebnisse nicht beeinträchtigen können.
Die Ratten erhalten Wasser ad lib.
Jeweils 12 Ratten bilden eine Versuchsgruppe und werden mit Futter, das mit der gewünschten Menge Wirkstoff versetzt ist, gefüttert. Eine Kontrollgruppe erhält Futter ohne Wirkstoff. Das durchschnittliche Körpergewicht sowie die Streuung in den Körpergewichten der Ratten ist in jeder Versuchsgruppe gleich, so daß eine Vergleichbarkeit der Versuchsgruppen untereinander gewährleistet ist.
Gewichtszunahme und Futterverbrauch werden während des 13-tägigen Versuches bestimmt.

Row | Structure (SMILES) | Gewichtszunahmen im Vergleich zur Kontrolle
1 | COC(=O)[C@H](Cc1c[nH]c2ccccc12)NC(=O)Nc1cccc2ccccc12 [Beispiel 3] | deutliche Gewichtszunahmen
2 | CCOC(=O)c1c(NC(=O)N[C@@H](CCSC)C(=O)OC)sc(-c2ccccc2)c1C [Beispiel 1] | deutliche Gewichtszunahmen
3 | CC[C@H](C)[C@H](NC(=O)Nc1cccc2ccccc12)C(=O)O [Beispiel 2] | deutliche Gewichtszunahmen
